For 30 molecules, IC50 results are on record in patent US10358446B2, “Bruton's tyrosine kinase inhibitors” (Zibo Biopolar Changsheng Pharmaceutical Co. Ltd., priority 2015, dated 2019).

The structures appear in SMILES notation.

Chain of BTK (Q06187 whole entry, species assumed): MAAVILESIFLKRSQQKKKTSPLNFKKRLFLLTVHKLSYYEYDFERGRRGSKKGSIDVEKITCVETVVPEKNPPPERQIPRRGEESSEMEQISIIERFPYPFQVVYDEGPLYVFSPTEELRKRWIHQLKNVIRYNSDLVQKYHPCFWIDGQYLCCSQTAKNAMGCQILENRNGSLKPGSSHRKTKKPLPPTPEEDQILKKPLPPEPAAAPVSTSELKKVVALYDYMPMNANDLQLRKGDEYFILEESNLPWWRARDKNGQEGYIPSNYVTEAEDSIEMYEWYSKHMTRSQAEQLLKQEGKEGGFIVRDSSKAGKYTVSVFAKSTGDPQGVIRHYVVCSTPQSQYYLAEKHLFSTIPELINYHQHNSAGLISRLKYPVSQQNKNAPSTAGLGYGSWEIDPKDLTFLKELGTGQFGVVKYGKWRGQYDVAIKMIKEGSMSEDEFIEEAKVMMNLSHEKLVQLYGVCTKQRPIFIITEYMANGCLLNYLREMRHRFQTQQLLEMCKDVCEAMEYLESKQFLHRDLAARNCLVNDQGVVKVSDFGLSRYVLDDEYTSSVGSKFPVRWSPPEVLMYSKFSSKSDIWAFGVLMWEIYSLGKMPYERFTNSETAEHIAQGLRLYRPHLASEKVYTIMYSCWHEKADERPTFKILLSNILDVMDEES

The experiment concerns the target BTK (Homo sapiens (Human), UniProt Q06187). Briefly: Btk kinase assay (HTRF). Format: biochemical. The note with it: [ATP]=80 μM, BTK=3.4 nM; read-out: BTK Inhibition. Here is the method:
Btk kinase activity was determined using a homogenous time resolved fluorescence (HTRF) methodology. Measurements were performed in a reaction volume of 15 μL using 384-well assay plates. Kinase enzyme, inhibitor, ATP and 1 μM peptide substrate were incubated in a reaction buffer compose of Hepes 50 mM (pH7.0), NaN3 0.02%, BSA 0.01%, Orthocanadate 0.1 mM. After one hour, the kinase reaction was quenched by the addition of […] antibody and XL-665 in 1× Detection buffer containing 60 mM EDTA (Cisbio), and the mixture was allowed to incubate for one hour. The HTRF signal was measured on a multimode plate reader (EnVision® Multilabel Reader, Perkin Elmer) with an excitation wavelength (λEx) of 330 nm and detection wavelengths (λEm) of 615 and 665 nrm. Activity was determined by the ratio of the fluorescence at 665 nm to that at 615 nm. For each compound, enzyme activity as measured at various concentrations of compound, Negative control reactions were performed in the absence of inhibitor in two replicates and eight no enzyme controls were used to determine baseline fluorescence levels. IC50s were obtained according to the equation: […] For BTK assay, [ATP]=80 μM, BTK=3.4 nM.
For `C=CC(=O)Nc1cccc(-n2c(=O)n(-c3ccc(Oc4cccc(C)c4)c(Cl)c3)c3cnccc32)c1` [Example 144, N-(3-(3-(3-chloro-4-(m-tolyloxy)phenyl)-2-oxo-2,3-dihydro-1H-imidazo[4,5-c]pyridin-1-yl)phenyl)acrylamide], the IC50 lay within 10 to 100 nM.

On to `C=CC(=O)N1CC[C@@H](n2c(=O)n(-c3cccc(-c4ccccc4)c3)c3cnccc32)C1` [Example 277, (R)-3-([1,1′-biphenyl]-3-yl)-1-(1-acryloylpyrrolidin-3-yl)-1H-imidazo[4,5-c]pyridin-2(3H)-one], for which the IC50 fell in the range of 100 to 1000 nM.

Take `C=CC(=O)N1CC[C@@H](n2c(=O)n(-c3ccc(Oc4cccc(C)c4OC)cc3)c3cnccc32)C1` [Example 67, (R)-1-(1-acryloylpyrrolidin-3-yl)-3-(4-(2-methoxy-3-methylphenoxy)phenyl)-1H-imidazo[4,5-c]pyridin-2(3H)-one]: the IC50 lay within 10 to 100 nM.

Take `C=C(C)C(=O)Nc1cccc(-n2c(=O)n(-c3ccc(Oc4ccccc4)cc3)c3cnccc32)c1` [Example 110, N-(3-(2-oxo-3-(4-phenoxyphenyl)-2,3-dihydro-1H-imidazo[4,5-c]pyridin-1-yl)phenyl)methacrylamide]: the IC50 lay within 100 to 1000 nM.

In the case of `C=CC(=O)N1CC[C@@H](n2c(=O)n(-c3cccc(Oc4ccccc4)c3)c3cnccc32)C1` [Example 155, (R)-1-(1-acryloylpyrrolidin-3-yl)-3-(3-phenoxyphenyl)-1H-imidazo[4,5-c]pyridin-2(3H)-one], the IC50 fell in the range of 10 to 100 nM.

In the case of `O=C(O)C(=O)N1CCCC(n2c(=O)n(-c3ccc(Oc4ccccc4)cc3)c3cnccc32)C1` (stereo not drawn) [Example 192, 2-oxo-2-(3-(2-oxo-3-(4-phenoxyphenyl)-2,3-dihydro-1H-imidazo[4,5-c]pyridin-1-yl)piperidin-1-yl)acetic acid], the IC50 is 1000 to 10000 nM.

Regarding `C=CC(=O)N1CCCC1Cn1c(=O)n(-c2ccc(Oc3ccccc3)cc2)c2cnccc21` (stereo not drawn) [Example 21, 1-((1-acryloylpyrrolidin-2-yl)methyl)-3-(4-phenoxyphenyl)-1H-imidazo[4,5-c]pyridin-2(3H)-one], the IC50 fell in the range of 10 to 100 nM.

As to `C=CC(=O)Nc1cccc(-n2c(=O)n(-c3ccc(OCc4ccc(Cl)cc4F)cc3)c3cnccc32)c1` [Example 245, N-(3-(3-(4-((4-chloro-2-fluorobenzyl)oxy)phenyl)-2-oxo-2,3-dihydro-1H-imidazo[4,5-c]pyridin-1-yl)phenyl)acrylamide], the IC50 is 100 to 1000 nM.

With `C=CC(=O)Nc1cccc(-n2c(=O)n(-c3cccc(OCc4ccccc4)c3)c3cnccc32)c1` [Example 233, N-(3-(3-(3-(benzyloxy)phenyl)-2-oxo-2,3-dihydro-1H-imidazo[4,5-c]pyridin-1-yl)phenyl)acrylamide], the IC50 was in the range of 10 to 100 nM.

For the molecule `C=CC(=O)N1CC[C@@H](n2c(=O)n(-c3ccc(OCc4ccccc4)c(F)c3)c3cnccc32)C1` [Example 237, (R)-1-(1-acryloylpyrrolidin-3-yl)-3-(4-(benzyloxy)-3-fluorophenyl)-1,3-dihydro-2H-imidazo[4,5-c]pyridin-2-one], the IC50 is 10 to 100 nM.

As for `CN(C(=O)/C=C/CN(C)C1CC1)c1cccc(-n2c(=O)n(-c3ccc(Oc4ccccc4)cc3)c3c(N)ncnc32)c1` [Example 174, (E)-N-(3-(6-amino-8-oxo-7-(4-phenoxyphenyl)-7H-purin-9(8H)-yl)phenyl)-4-(cyclopropyl(methyl)amino)-N-methylbut-2-enamide], the IC50 lay within 10 to 100 nM.

On to `C=CC(=O)Nc1cccc(-n2c(=O)n(-c3ccc(Oc4cccc(F)c4C)cc3)c3cnccc32)c1` [Example 79, N-(3-(3-(4-(3-fluoro-2-methylphenoxy)phenyl)-2-oxo-2,3-dihydro-1H-imidazo[4,5-c]pyridin-1-yl)phenyl)acrylamide], for which the IC50 lay in the range of 10 to 100 nM.

As to `C=CC(=O)N1CCC(n2c(=O)n(-c3ccc(Oc4ccccc4)c(C)c3)c3cnccc32)C1` (stereo not drawn) [Example 91, 1-(1-acryloylpyrrolidin-3-yl)-3-(3-methy1-4-phenoxyphenyl)-1,3-dihydro-2H-imidazo[4,5-c]pyridin-2-one], the IC50 lay in the range of 10 to 100 nM.

In the case of `C=CC(=O)N1CC[C@@H](n2c(=O)n(-c3ccc(Oc4cccc(F)c4OC)cc3)c3cnccc32)C1` [Example 137, (R)-1-(1-acryloylpyrrolidin-3-yl)-3-(4-(3-fluoro-2-methoxyphenoxy)phenyl)-1H-imidazo[4,5-c]pyridin-2(3H)-one], the IC50 lay in the range of 100 to 1000 nM.

On to `C=CC(=O)Nc1cccc(-n2c(=O)n(-c3ccc(NC(=O)c4ccc(OC)cc4)cc3)c3cnccc32)c1` [Example 264, N-(4-(1-(3-acrylamidophenyl)-2-oxo-1H-imidazo[4,5-c]pyridin-3(2H)-yl)phenyl)-4-methoxybenzamidee], for which the IC50 is 100 to 1000 nM.

In the case of `C=CC(=O)Nc1cccc(-n2c(=O)n(-c3ccc(NC(=O)c4cccc(C)c4)cc3)c3cnccc32)c1` [Example 267, N-(4-(1-(3-acrylamidophenyl)-2-oxo-1H-imidazo[4,5-c]pyridin-3(2H)-yl)phenyl)-3-methylbenzamide], the IC50 was at least 10000 nM.

On to `C=CC(=O)Nc1cccc(-n2c(=O)n(-c3ccc(NC(=O)c4cccc(OC)c4)cc3)c3cnccc32)c1` [Example 266, N-(4-(1-(3-acrylamidophenyl)-2-oxo-1H-imidazo[4,5-c]pyridin-3(2H)-yl)phenyl)-3-methoxybenzamide], for which the IC50 is 100 to 1000 nM.

On to `C=CC(=O)N1CC[C@@H](n2c(=O)n(-c3cccc(Oc4cccc(F)c4C)c3)c3cnccc32)C1` [Example 55, (R)-1-(1-acryloylpyrrolidin-3-yl)-3-(3-(3-fluoro-2-methylphenoxy)phenyl)-1H-imidazo[4,5-c]pyridin-2(3H)-one], for which the IC50 was 10 to 100 nM.

Turning to `C=CC(=O)N1CCC[C@@H](n2c(=O)n(-c3ccc(Oc4cccc(OC)c4Cl)cc3)c3cnccc32)C1` [Example 185, (R)-1-(1-acryloylpiperidin-3-yl)-3-(4-(2-chloro-3-methoxyphenoxy)phenyl)-1H-imidazo[4,5-c]pyridin-2(3H)-one], the IC50 is at most 10 nM.

Consider `C=CC(=O)N1CC[C@@H](n2c(=O)n(-c3ccc(Oc4cccc(F)c4)cc3)c3cnccc32)C1` [Example 84, (R)-1-(1-acryloylpyrrolidin-3-yl)-3-(4-(3-fluorophenoxy)phenyl)-1H-imidazo[4,5-c]pyridin-2(3H)-one], for which the IC50 fell in the range of 10 to 100 nM.

As to `C=CC(=O)N1CC[C@@H](n2c(=O)n(-c3ccc(Oc4ccc(OC)cc4)cc3)c3cnccc32)C1` [Example 35, (R)-1-(1-acryloylpyrrolidin-3-yl)-3-(4-(4-methoxyphenoxy)phenyl)-1H-imidazo[4,5-c]pyridin-2(3H)-one], the IC50 lay within 10 to 100 nM.

With `C=CC(=O)N1CC[C@@H](n2c(=O)n(-c3cccc(Oc4cccc(OC5CC5)c4)c3)c3cnccc32)C1` [Example 56, (R)-1-(1-acryloylpyrrolidin-3-yl)-3-(3-(3-cyclopropoxyphenoxy)phenyl)-1H-imidazo[4,5-c]pyridin-2(3H)-one], the IC50 was in the range of 10 to 100 nM.

Regarding `C=CC(=O)Nc1cccc(-n2c(=O)n(-c3ccc(C(=O)Nc4cccc(C)c4)cc3)c3cnccc32)c1` [Example 255, 4-(1-(3-acrylamidophenyl)-2-oxo-1H-imidazo[4,5-c]pyridin-3(2H)-yl)-N-(m-tolyl)benzamide], the IC50 was in the range of 1000 to 10000 nM.

Consider `NC(=O)C(=O)N1CCCC(n2c(=O)n(-c3ccc(Oc4ccccc4)cc3)c3cnccc32)C1` (stereo not drawn) [Example 194, 2-oxo-2-(3-(2-oxo-3-(4-phenoxyphenyl)-2,3-dihydro-1H-imidazo[4,5-c]pyridin-1-yl)piperidin-1-yl)acetamide], for which the IC50 is at least 10000 nM.

`C=CC(=O)Nc1cccc(-n2c(=O)n(-c3ccc(Oc4cccc(OC(F)(F)F)c4)cc3)c3cnccc32)c1` [Example 70, N-(3-(2-oxo-3-(4-(3-(trifluoromethoxy)phenoxy)phenyl)-2,3-dihydro-1H-imidazo[4,5-c]pyridin-1-yl)phenyl)acrylamide]: the IC50 lay in the range of 1000 to 10000 nM.

`C=CC(=O)N1CC[C@@H](n2c(=O)n(-c3ccc(OCc4ccccc4F)c(Cl)c3)c3cnccc32)C1` [Example 236, (R)-1-(1-acryloylpyrrolidin-3-yl)-3-(3-chloro-4-((2-fluorobenzyl)oxy)phenyl)-1,3-dihydro-2H-imidazo[4,5-c]pyridin-2-one]: the IC50 fell in the range of 100 to 1000 nM.

`CC#CC(=O)N1CC[C@@H](n2c(=O)n(-c3ccc(Oc4cccc(OC)c4F)cc3)c3cncc(C)c32)C1` [Example 173, (R)-1-(1-(but-2-ynoyl)pyrrolidin-3-yl)-3-(4-(2-fluoro-3-methoxyphenoxy)phenyl)-7-methyl-1H-imidazo[4,5-c] pyridin-2(3H)-one]: the IC50 was 10 to 100 nM.

`C=CC(=O)N1CC[C@@H](n2c(=O)n(-c3ccc(OCc4ccc(F)cc4F)c(Cl)c3)c3cnccc32)C1` [Example 202, (R)-1-(1-acryloylpyrrolidin-3-yl)-3-(3-chloro-4-((2,4-difluorobenzyl)oxy)phenyl)-1H-imidazo[4,5-c]pyridin-2(3H)-one]: the IC50 lay in the range of 100 to 1000 nM.

In the case of `C=CC(=O)N1CCC(n2c(=O)n(-c3ccc(Oc4cccnn4)cc3)c3cnccc32)C1` (stereo not drawn) [Example 165, 1-(1-acryloylpyrrolidin-3-yl)-3-(4-(pyridazin-3-yloxy)phenyl)-1H-imidazo[4,5-c]pyridin-2(3H)-one], the IC50 lay within 100 to 1000 nM.

As for `C=CC(=O)Nc1cccc(-n2c(=O)n(-c3ccc(-c4cccc(C)c4)cc3)c3cnccc32)c1` [Example 270, N-(3-(3-(3′-methyl-[1,1′-biphenyl]-4-yl)-2-oxo-2,3-dihydro-1H-imidazo[4,5-c]pyridin-1-yl)phenyl)acrylamide], the IC50 was at least 10000 nM.
